Test results: patent US10752900B2, “Oligonucleotides for modulating gene expression and uses thereof” (BIOGENERA S.P.A., priority 2012, dated 2020)

What was measured:
RD = assay: Cellular proliferation, RD cells; format: cell-based; details: Table 11, MYC-directed PNA, 2.5 μM
Procedure: (§1) For this purpose 5×10^3 cells per well were seeded into 96-well cell culture plates (experiments conducted in triplicate) with 100 μl of OPTI-MEM (GIBCO BRL) medium containing 4% FBS and 2 mM of L-glutammine.
(§2) Cell viability was assessed by means of an ATP-Lite assay (Luminescence ATP Detection Assay System, PerkinElmer) and is reported as the ratio between the average signal of the treated wells compared to the average value of the wells of untreated control cells. The cells were processed following the instructions provided with the kit.
(§3) The oligonucleotides were tested in vitro (at a concentration of 2.5 μM) to determine their ability to inhibit the transcription of the gene they are directed against by measuring the levels of the gene messenger in cellular models in which the gene of interest is overexpressed. The methods used are the ones described in example 1.
(§4) In particular, SEQ ID NO: 66-69 (directed against MYCN) were tested in vitro in the Kelly and H69 cell lines; SEQ ID NO: 70-74 (directed against MYC) were tested in vitro in the H82 and RD cell lines, SEQ ID NO: 75, 76 (directed against BIRC5) were tested in vitro in the Kelly cell line, SEQ ID NO: 77-79 (directed against ALK) were tested in vitro in the Kelly cell line, SEQ ID NO: 80-82 (directed against BCL2) were tested in vitro in the Kelly cell line and SEQ ID NO: 83, 84 (directed against PLK4) were tested in vitro in the Kelly cell line.
(§5) The ability of the tested oligonucleotides to inhibit the messenger of the gene of interest was measured and the proliferative capacity of the cells following administration of the oligonucleotides was also assessed.

MYC [1] = assay: QT-PCR, MYC mRNA in H82 cells; format: cell-based; details: Table 11, 2.5 μM
Procedure: (§6) For the purpose of assessing the ability of the oligonucleotides of the present invention to modulate the expression of the target genes, their ability to reduce the quantity of messenger RNA was analyzed using the Real-Time PCR technique.
(§7) The cells were treated with the oligonucleotides, adding FBS up to 4% 6 hours after administration of the same. After 24 hours the total RNA was extracted from each well and purified using the RNeasy Mini Kit (QIAGEN).
(§8) As a control, use was made of the same cell lines as listed above treated with sterile water instead of oligonucleotides. Each RNA sample was quantified (in duplicate) using a NanoDrop ND-1000 spectrophotometer (NanoDrop Technologies). The first strand of cDNA was produced using the cDNA Synthesis Kit for RT-PCR (Roche). For the cDNA synthesis reaction a total of 1 μg of RNA was used. For the real-time PCR, 10 ng of cDNA in a final volume of 20 μl was used with SYBR Green Master Mix 2× (Applied Biosystems) (3 identical experiments were conducted in triplicate). Two housekeeping genes were used as positive controls: GAPDH and beta-actin (ACTB).
(§9) The conditions of the QT-PCR reaction were: 10 min at 95° C., 20 sec at 95° C., and 30 sec at 60° C., for 50 cycles.
as §3, §4, §5

MYC [2] = assay: QT-PCR, MYC mRNA in RD cells; format: cell-based; details: Table 11, 2.5 μM
Procedure: as §6, §7, §8, §9, §3, §4, §5

H82 = assay: Cellular proliferation, H82 cells; format: cell-based; details: Table 11, MYC-directed PNA, 2.5 μM
Procedure: as §1, §2, §3, §4, §5

BIRC5 = assay: QT-PCR, BIRC5 mRNA in Kelly cells; format: cell-based, human; details: Table 11, 2.5 μM
Procedure: as §6, §7
as §8, with “(ACTB). […]” for “(ACTB).”
as §5

Kelly cells = assay: Cellular proliferation assay (ATP-Lite), Kelly cells; format: cell-based, human; details: 2.5 μM
Procedure: For the purpose of assessing the gene modulation ability of the oligonucleotides of the present invention, the effect of their administration on cell viability was determined.
as §1
The PNA oligonucleotides were administered at different concentrations (1 μM-2.5 μM-5 μM-10 μM) in order to observe a dose-effect relationship.
As regards all the other oligonucleotides, the concentrations at which they administered are listed in the paragraph:
The viability of the treated cells was determined at 48, 72, 96 and 168 hours after treatment.
as §2
The assays were performed on the same cell lines used to determine the levels of the MYCN gene messenger and listed in the paragraph: Treatments with Oligonucleotides—QT-PCR.
As far as the PNA oligonucleotides are concerned, the results regarding their ability to inhibit the transcription of the MYCN gene and proliferation of Kelly cells are shown in Table 1.
as §5

ALK = assay: QT-PCR, ALK mRNA in Kelly cells; format: cell-based, human; details: Table 11, 2.5 μM
Procedure: as §6, §7, §8, §9
as §3, with “1. […]” for “1.”
as §5

BCL2 = assay: QT-PCR, BCL2 mRNA in Kelly cells; format: cell-based, human; details: Table 11, 2.5 μM
Procedure: as §6, §7, §8, §9
as §3, with “1. […]” for “1.”
as §5

PLK4 = assay: QT-PCR, PLK4 mRNA in Kelly cells; format: cell-based, human; details: Table 11; PLKA4, Kelly cells; 2.5 μM
Procedure: as §6, §7
as §8, with “(ACTB). […]” for “(ACTB).”
as §5

SEQ ID NO: 70: PNA CTCAGAGGCTTGGCGG directed against MYC (all peptide nucleic acid (PNA); antigene PNA)
Cell Prolif. (%) (RD): 73%
mRNA inhibit. (%) (MYC [1]): 43%
mRNA inhibit. (%) (MYC [2]): 34%
Cell Prolif. (%) (H82): 79%

SEQ ID NO: 71: PNA GCGGCCGGCTAGGGTG directed against MYC (all peptide nucleic acid (PNA); antigene PNA)
Cell Prolif. (%) (RD): 65%
mRNA inhibit. (%) (MYC [1]): 46%
mRNA inhibit. (%) (MYC [2]): 42%
Cell Prolif. (%) (H82): 75%

SEQ ID NO: 72: PNA CGGCCGGCTAGGGTGG directed against MYC (all peptide nucleic acid (PNA); antigene PNA)
Cell Prolif. (%) (RD): 53%
mRNA inhibit. (%) (MYC [1]): 52%
mRNA inhibit. (%) (MYC [2]): 58%
Cell Prolif. (%) (H82): 64%

SEQ ID NO: 73: PNA CGACGGCGGTGGCGGG directed against MYC (all peptide nucleic acid (PNA); antigene PNA)
Cell Prolif. (%) (RD): 51%
mRNA inhibit. (%) (MYC [1]): 56%
mRNA inhibit. (%) (MYC [2]): 59%
Cell Prolif. (%) (H82): 65%

SEQ ID NO: 74: PNA GGACGGGGGCGGTGGA directed against MYC (all peptide nucleic acid (PNA); antigene PNA)
Cell Prolif. (%) (RD): 47%
mRNA inhibit. (%) (MYC [1]): 61%
mRNA inhibit. (%) (MYC [2]): 64%
Cell Prolif. (%) (H82): 61%

SEQ ID NO: 75: PNA GCGGCGGCATGGGTGC directed against BIRC5 (all peptide nucleic acid (PNA); antigene PNA)
mRNA inhibit. (%) (BIRC5): 69%
Cell Prolif. (%) (Kelly cells; Table 11, BIRC5-directed PNA): 43%

SEQ ID NO: 76: PNA GGCGGCGGCATGGGTG directed against BIRC5 (all peptide nucleic acid (PNA); antigene PNA)
mRNA inhibit. (%) (BIRC5): 78%
Cell Prolif. (%) (Kelly cells; Table 11, BIRC5-directed PNA): 35%

SEQ ID NO: 77: PNA GCAGGAGAGGACGGTA directed against ALK (all peptide nucleic acid (PNA); antigene PNA)
Cell Prolif. (%) (Kelly cells; Table 11, ALK-directed PNA): 55%
mRNA inhibit. (%) (ALK): 57%

SEQ ID NO: 78: PNA CAGGAGAGGACGGTAC directed against ALK (all peptide nucleic acid (PNA); antigene PNA)
Cell Prolif. (%) (Kelly cells; Table 11, ALK-directed PNA): 46%
mRNA inhibit. (%) (ALK): 68%

SEQ ID NO: 79: PNA GGCAGGAGAGGACGGT directed against ALK (all peptide nucleic acid (PNA); antigene PNA)
Cell Prolif. (%) (Kelly cells; Table 11, ALK-directed PNA): 39%
mRNA inhibit. (%) (ALK): 79%

SEQ ID NO: 80: PNA GGATGGCGCACGCTGG directed against BCL2 (all peptide nucleic acid (PNA); antigene PNA)
Cell Prolif. (%) (Kelly cells; Table 11, BCL2-directed PNA): 62%
mRNA inhibit. (%) (BCL2): 59%

SEQ ID NO: 81: PNA GGGAAGGATGGCGCAC directed against BCL2 (all peptide nucleic acid (PNA); antigene PNA)
Cell Prolif. (%) (Kelly cells; Table 11, BCL2-directed PNA): 58%
mRNA inhibit. (%) (BCL2): 62%

SEQ ID NO: 82: PNA CCACGGTGGTGGAGGA directed against BCL2 (all peptide nucleic acid (PNA); antigene PNA)
Cell Prolif. (%) (Kelly cells; Table 11, BCL2-directed PNA): 55%
mRNA inhibit. (%) (BCL2): 68%

SEQ ID NO: 83: PNA ACGGCAAGCGGCGGGA directed against PLK4 (all peptide nucleic acid (PNA); antigene PNA)
mRNA inhibit. (%) (PLK4): 62%
Cell Prolif. (%) (Kelly cells; Table 11, PLK4-directed PNA): 59%

SEQ ID NO: 84: PNA GGACGGCAAGCGGCGG directed against PLK4 (all peptide nucleic acid (PNA); antigene PNA)
mRNA inhibit. (%) (PLK4): 74%
Cell Prolif. (%) (Kelly cells; Table 11, PLK4-directed PNA): 49%
